Paper PMC3691600, “Conversion of fatty aldehydes into alk (a/e)nes by in vitro reconstituted cyanobacterial aldehyde-deformylating oxygenase with the cognate electron transfer system” (Biotechnology for Biofuels, 2013)

Target: FNR (SynPcc7942_0978) (Synechococcus elongatus, UniProt Q31PL1)
Assay: UV/vis absorption spectrum of purified enzyme
Format: binding
Conditions: noncovalently bound; as purified; flavin identity inferred from spectrum and FNR homology

Sequence of FNR (SynPcc7942_0978) (Q31PL1 1-403): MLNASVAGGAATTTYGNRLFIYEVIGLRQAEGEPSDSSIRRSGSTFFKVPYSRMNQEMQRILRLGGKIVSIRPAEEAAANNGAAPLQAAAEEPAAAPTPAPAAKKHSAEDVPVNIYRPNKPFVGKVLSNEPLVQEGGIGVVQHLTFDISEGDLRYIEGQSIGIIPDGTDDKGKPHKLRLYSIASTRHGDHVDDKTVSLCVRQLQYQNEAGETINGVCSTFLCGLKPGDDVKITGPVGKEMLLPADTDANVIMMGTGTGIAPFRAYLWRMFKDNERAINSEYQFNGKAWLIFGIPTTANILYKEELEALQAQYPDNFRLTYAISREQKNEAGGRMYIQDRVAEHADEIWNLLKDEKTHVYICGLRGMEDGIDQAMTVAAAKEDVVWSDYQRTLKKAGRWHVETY

In the case of `Cc1cc2nc3c(=O)[nH]c(=O)nc-3n(C[C@H](O)[C@H](O)[C@H](O)COP(=O)(O)OP(=O)(O)OC[C@H]3O[C@@H](n4cnc5c(N)ncnc54)[C@H](O)[C@@H]3O)c2cc1C` [FAD], the “UV/vis absorption spectrum of purified enzyme” value is reported as “demonstrating that FNR is certainly a flavoprotein”.
